{"source": "patent US20170298056A1", "about": "“SMALL MOLECULE INHIBITORS OF HIV-1 ENTRY AND METHODS OF USE THEREOF” (Dana-Farber Cancer Institute, Inc., priority 2014, published 2017)", "key": {"[1]": {"test_system": "JR-FL and KB9 Env chimeras", "assay": "Viral infection assay, JR-FL/KB9 Env chimeras", "assay_type": "cell-based, HIV-1", "experimental": "Production of recombinant HIV-1 expressing luciferase. […] After 48 hours, the supernatant was collected, buffered with 50 mM Hepes pH 7.4 (final concentration) and centrifuged for 5 minutes at 750×g and 4° C. The virus-containing supernatant was used directly or frozen at −80° C.\nViral infection assay. Each test compound was serially diluted in DMSO in a 96-well B&W isoplate (PerkinElmer, Boston, Mass.) using an HP D300 Digital Dispenser, to a final volume of 450 nl. DMSO was used as a control. Viruses pseudotyped with a specific Env were added to each well and incubated briefly at room temperature. Cf2Th-CD4/CCR5 cells were detached with StemPro Accutase Cell Dissociation Reagent (Invitrogen, cat #A11105-01), washed once, and 5000 cells were added to each well. […] Following incubation, the medium was aspirated and cells were lysed with 30 μl of Passive Lysis Buffer (Promega, cat #E1941). The activity of the firefly luciferase, which was used as a reporter protein in the system, was measured with a Centro LB 960 luminometer (Berthold Technologies, Oak Ridge, Tenn.). One hundred microliters of assay buffer (15 mM MgSO4, 15 mM KH2PO4/K2HPO4 pH 7.8, 1 mM ATP and 1 mM DTT) was injected to each well, followed by a 50 μl injection of 1 mM Dluciferin potassium salt (BD Pharmingen, San Jose, Calif.); luminescence was measured for 2 sec. Infection of PBMC was done as above, but 20,000-40,000 cells/well and viruses concentrated by ultracentrifugation were used. After four hours of incubation with viruses, the cells were centrifuged at 200×g for 6 minutes at 4° C., resuspended in 100 μl RPMI-PBMC medium and incubated at 37° C. for an additional 36-40 hours (total 40-44 hours). Supernatant was removed after centrifugation at 400×g for 5 minutes and cells were processed to detect luciferase activity, as described above."}, "[2]": {"test_system": "F-luc expression in H-Fluc4 cells", "assay": "Specificity control assay (induced firefly luciferase, H-Fluc4 cells)", "assay_type": "cell-based", "experimental": "H-JRFL#1336 (effector) and H-Fluc4 (control) cells were grown in DMEM containing 10% FBS, 100 μg/ml streptomycin, 100 units/ml penicillin, 200 μg/ml G418, 1 μg/ml puromycin and 2 μg/ml doxycycline. H-JRFL#13 cells carry an HIV-1JR-FL env gene that is induced by growing the cells in the absence of doxycycline (Tet-Off expression system). H-Fluc4 cells, which carry a firefly luciferase gene that is induced in the absence of doxycycline, were used as specificity controls. Both cell lines were derived from HeLa cells and constitutively express the tetracycline-regulated transactivator (Tet-Off expression system). […]\nH-JRFL#13 or H-FLuc4 cells were washed thrice, detached with StemPro Accutase, centrifuged at 200×g for 6 minutes at 10° C. and seeded in DMEM containing 10% tetracycline-approved FBS, 100 μg/ml streptomycin, 100 units/ml penicillin, 100 μg/ml G418, 1 μg/ml puromycin and without Phenol Red. […] Firefly luciferase activity was measured using an EnVision Multilabel Plate Reader (PerkinElmer, Boston, Mass.). […]\nTo identify new molecules that potentially affect HIV-1 entry, a cell-cell fusion assay that mimics the entry of HIV-1 into cells was established (FIG. 1a). The assay uses a firefly luciferase (F-luc) readout to measure the fusion of HeLa effector cells that express the Envs from a primary HIV-1 strain and target cells coexpressing the CD4 and CCR5 receptors. […]"}, "[3]": {"conditions": "Env with KB9 gp120 and JR-FL gp41"}}, "data": [{"smiles": "O=C(N/N=C/c1ccc(O)cc1)Nc1cccc2nsnc12", "note": "[Compound 18A]", "values": [{"measurement": "sensitivity to inhibition", "setting": "[1]; Env with JR-FL gp120 and KB9 gp41", "value": "nearly as sensitive as the parental JR-FL Env"}, {"measurement": "fold more sensitive than parental KB9 Env", "setting": "[1]; [3]", "value": 2, "unit": "fold"}, {"measurement": "fold resistance relative to JR-FL Env", "setting": "[1]; [3]", "value": "about 5 fold"}, {"measurement": "sensitivity to inhibition", "setting": "[1]; major variable loops of JR-FL gp120 grafted onto KB9 Env", "value": "nearly as sensitive to 18A inhibition as JR-FL"}, {"measurement": "IC50", "setting": "[2]", "value": "15.1 ± 1.1", "unit": "µM"}]}]}
